# Test results reported in paper PMC5114558, “Reader domain specificity and lysine demethylase-4 family function” (Nature Communications, 2016).
# Numbering of substitutions follows the chain as printed.
# Legend:
# KDM4A-DTD Y973A = target: T1, KDM4A-DTD Y973A (Homo sapiens, UniProt O75164, Y973A); assay: FP binding, KDM4A-DTD Y973A; settings: pH 7.4, aromatic cage mutant, Fig. 2e (± s.d., three replicates) and text
# T1 construct: DNA encoding DTDs (KDM4A 895–1011aa, KDM4B 917–1031aa and KDM4C 877–991aa); (His)6-HaloTag (pFN29) or (His)6 (pET28b); made in house; host or cells: Escherichia coli BL21 (DE3)
# T1 sequence (O75164 895-1011 Y973A limits assumed): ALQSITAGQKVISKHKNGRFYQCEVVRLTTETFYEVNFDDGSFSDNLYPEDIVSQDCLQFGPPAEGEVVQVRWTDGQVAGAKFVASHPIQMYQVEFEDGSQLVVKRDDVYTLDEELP
# Text: (§1) KDM4 protein sequences used in this study correspond to Uniprot ID: O75164 (human KDM4A, isoform 1), O94953 (human KDM4B, isoform1) and Q9H3R0 (human KDM4C, isoform1). Plasmid encoding KDM4A DTD was kindly provided by R-M Xu (Chinese Academy of Sciences). Complementary DNA encoding human KDM4B-DTD was synthesized (Integrated DNA Technologies). Plasmid containing cDNA of full-length KDM4C (clone ID: HsCD00341594) was obtained from Harvard Plasmid Repository. DNA encoding DTDs (KDM4A 895–1011aa, KDM4B 917–1031aa and KDM4C 877–991aa) were cloned into pFN29 (Promega) with N-terminal (His)6-HaloTag or pET28b with N-terminal (His)6 Tag using In-Fusion HD cloning kit (Clontech). […]
# (§2) Peptide sequences are given in Supplementary Table 1. […] Polarization at each concentration was measured as triplicates in 384-well polystyrene black microplates (Thermo Fisher Scientific 262260) by Biotek Synergy H4 multimode plate reader (light source: xenon flash, offset from top: 7 mm, sensitivity: 60%, excitation: 485/20 nm, emission: 528/20 nm, both parallel and perpendicular, normal read speed). Fraction bound (Fb) at each concentration was calculated based on the corresponding polarization values (P): Fbc=(Pc−Pmin)/(Pmax−Pmin), where Pmin is the polarization value of no-protein control and Pmax is the polarization value of the saturation value for that peptide. […]
# [1] = target: T2, KDM4C DTD (human KDM4C double tudor domain, 877–991aa) (Homo sapiens, UniProt Q9H3R0); assay: fluorescence polarization (FP) binding, KDM4C-DTD wild-type; settings: Fig. 1c, 3 nM fluorescein-labelled peptide, pH 7.4, ± s.d. from three experimental replicates, read-out: binding constant (FP), KDM4C-DTD
# T2 construct: DNA encoding DTDs (KDM4A 895–1011aa, KDM4B 917–1031aa and KDM4C 877–991aa); (His)6-HaloTag (pFN29) or (His)6 (pET28b); made in house; host or cells: Escherichia coli BL21 (DE3)
# T2 sequence (Q9H3R0 877-991): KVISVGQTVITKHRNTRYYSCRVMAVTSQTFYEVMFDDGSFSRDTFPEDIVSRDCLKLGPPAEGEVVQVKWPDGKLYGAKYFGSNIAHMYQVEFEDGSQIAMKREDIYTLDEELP
# Text: as §1, §2
# [2] = target: T3, KDM4A DTD (human KDM4A double tudor domain, 895–1011aa) (Homo sapiens, UniProt O75164); assay: fluorescence polarization (FP) binding, KDM4A-DTD wild-type; settings: pH 7.4, read-out: Kd, KDM4A-DTD wild-type
# T3 construct: DNA encoding DTDs (KDM4A 895–1011aa, KDM4B 917–1031aa and KDM4C 877–991aa); (His)6-HaloTag (pFN29) or (His)6 (pET28b); made in house; host or cells: Escherichia coli BL21 (DE3)
# T3 sequence (O75164 895-1011): T1 sequence (O75164 895-1011 Y973A limits assumed) with A79Y
# Text: (§3) KDM4 protein sequences used in this study correspond to Uniprot ID: O75164 (human KDM4A, isoform 1), O94953 (human KDM4B, isoform1) and Q9H3R0 (human KDM4C, isoform1). Plasmid encoding KDM4A DTD was kindly provided by R-M Xu (Chinese Academy of Sciences). Complementary DNA encoding human KDM4B-DTD was synthesized (Integrated DNA Technologies). Plasmid containing cDNA of full-length KDM4C (clone ID: HsCD00341594) was obtained from Harvard Plasmid Repository. DNA encoding DTDs (KDM4A 895–1011aa, KDM4B 917–1031aa and KDM4C 877–991aa) were cloned into pFN29 (Promega) with N-terminal (His)6-HaloTag or pET28b with N-terminal (His)6 Tag using In-Fusion HD cloning kit (Clontech). Plasmids encoding Xenopus laevis core histones were a generous gift of K. Luger (University of Colorado-Boulder). Site-directed mutagenesis was performed with Q5 Site-Directed Mutagenesis Kit (New England Biolabs).
# (§4) Peptide sequences are given in Supplementary Table 1. […] A no-protein control with only peptide probe was included. Polarization at each concentration was measured as triplicates in 384-well polystyrene black microplates (Thermo Fisher Scientific 262260) by Biotek Synergy H4 multimode plate reader (light source: xenon flash, offset from top: 7 mm, sensitivity: 60%, excitation: 485/20 nm, emission: 528/20 nm, both parallel and perpendicular, normal read speed). Fraction bound (Fb) at each concentration was calculated based on the corresponding polarization values (P): Fbc=(Pc−Pmin)/(Pmax−Pmin), where Pmin is the polarization value of no-protein control and Pmax is the polarization value of the saturation value for that peptide. Dissociation constants (Kd) were derived by KaleidaGraph, Synergy Software (version 4.1.3) using the following equation: Fb=[protein]/([protein]+Kd).
# KDM4A-DTD N931D = target: T4, KDM4A-DTD N931D (Homo sapiens, UniProt O75164, N931D); assay: FP binding, KDM4A-DTD N931D; settings: pH 7.4, Fig. 2j (± s.d., three replicates), Supplementary Fig. 2f and text
# T4 construct: DNA encoding DTDs (KDM4A 895–1011aa, KDM4B 917–1031aa and KDM4C 877–991aa); (His)6-HaloTag (pFN29) or (His)6 (pET28b); made in house; host or cells: Escherichia coli BL21 (DE3)
# T4 sequence (O75164 895-1011 N931D): T1 sequence (O75164 895-1011 Y973A limits assumed) with N37D, A79Y
# Text: as §1, §2
# KDM4A-DTD N931R = target: T5, KDM4A-DTD N931R (Homo sapiens, UniProt O75164, N931R); assay: FP binding, KDM4A-DTD N931R; settings: pH 7.4, Fig. 2j (± s.d., three replicates) and text, read-out: binding affinity, KDM4A-DTD N931R
# T5 construct: DNA encoding DTDs (KDM4A 895–1011aa, KDM4B 917–1031aa and KDM4C 877–991aa); (His)6-HaloTag (pFN29) or (His)6 (pET28b); made in house; host or cells: Escherichia coli BL21 (DE3)
# T5 sequence (O75164 895-1011 N931R limits assumed): T1 sequence (O75164 895-1011 Y973A limits assumed) with N37R, A79Y
# Text: as §1, §2
# KDM4A-DTD N940A = target: T6, KDM4A-DTD N940A (Homo sapiens, UniProt O75164, N940A); assay: FP binding, KDM4A-DTD N940A; settings: pH 7.4, Fig. 2g, 4g (± s.d., three replicates) and text
# T6 construct: DNA encoding DTDs (KDM4A 895–1011aa, KDM4B 917–1031aa and KDM4C 877–991aa); (His)6-HaloTag (pFN29) or (His)6 (pET28b); made in house; host or cells: Escherichia coli BL21 (DE3)
# T6 sequence (O75164 895-1011 N940A): T1 sequence (O75164 895-1011 Y973A limits assumed) with N46A, A79Y
# Text: as §1, §2
# [3] = target: T7, KDM4B DTD (human KDM4B double tudor domain, 917–1031aa) (Homo sapiens, UniProt O94953); assay: fluorescence polarization (FP) binding, KDM4B-DTD wild-type; settings: Fig. 1c, 3 nM fluorescein-labelled peptide, pH 7.4, ± s.d. from three experimental replicates, read-out: binding constant (FP), KDM4B-DTD
# T7 construct: DNA encoding DTDs (KDM4A 895–1011aa, KDM4B 917–1031aa and KDM4C 877–991aa); (His)6-HaloTag (pFN29) or (His)6 (pET28b); made in house; host or cells: Escherichia coli BL21 (DE3)
# T7 sequence (O94953 917-1031): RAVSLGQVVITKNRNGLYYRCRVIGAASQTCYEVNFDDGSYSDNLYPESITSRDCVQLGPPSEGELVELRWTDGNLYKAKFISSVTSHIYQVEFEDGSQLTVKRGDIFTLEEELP
# Text: as §3, §4
# [4] = target: T8, KDM4A-DTD triple mutant N931D/D939R/D945R (DRR) (Homo sapiens, UniProt O75164, D939R/D945R/N931D); assay: FP binding, KDM4A-DTD DRR mutant
# T8 construct: DNA encoding DTDs (KDM4A 895–1011aa, KDM4B 917–1031aa and KDM4C 877–991aa); (His)6-HaloTag (pFN29) or (His)6 (pET28b); made in house; host or cells: Escherichia coli BL21 (DE3)
# T8 sequence (O75164 895-1011 N931D/D939R/D945R): T1 sequence (O75164 895-1011 Y973A limits assumed) with N37D, D45R, D51R, A79Y
# Text: as §1, §2
# KDM4B-DTD Y993A = target: T9, KDM4B-DTD Y993A (Homo sapiens, UniProt O94953, Y993A); assay: FP binding, KDM4B-DTD Y993A; settings: aromatic cage mutant, Supplementary Fig. 4d, value printed in peer review file
# T9 construct: DNA encoding DTDs (KDM4A 895–1011aa, KDM4B 917–1031aa and KDM4C 877–991aa); (His)6-HaloTag (pFN29) or (His)6 (pET28b); made in house; host or cells: Escherichia coli BL21 (DE3)
# T9 sequence (O94953 917-1031 Y993A): T7 sequence (O94953 917-1031) with Y77A
# Text: as §1, §2
# [5] = test system: KDM4B full-length protein; assay: MS-based demethylation assay, full-length KDM4B; format: biochemical, human; settings: 0.2 μM enzyme, 5–10 μM peptide, pH 7.5, 25 °C, MS read-out; single peptide substrates; Fig. 6a,b
# Experimental: In a typical demethylase reaction, the assay mixture containing 50 mM Tris pH 7.5, 50 mM NaCl, 50 μM (NH4)2Fe(SO4)2, 0.5 mM ascorbic acid, 1 mM α-ketoglutarate and 0.2 μM full-length KDM4A–C (Active Motif) was mixed with 5–10 μM of trimethylated histone peptides (detailed sequence information in Supplementary Table 1). Each peptide concentration was quantified by measuring Abs280nm for peptides containing either tryptophan or tyrosine residue. After incubation of assay mixture at 25 °C for 10, 30 and 60 min time point, 10 μl of aliquot was transferred to a clean tube containing 5 μl of 5% formic acid to quench the reaction. Each quenched sample was treated with standard StageTip protocol using C18 extraction disk (Model 2215, Empore, 3 M) to remove excess salts and detergents in the reaction mixture. Each eluate from StageTip containing peptides was dried at a reduced pressure (vacuum centrifuge) and was re-suspended with 10 μl of 5% acetonitrile solution (0.1% formic acid). The 1 μl of the sample was injected at 0.7 μl min^−1 flow rate onto a Dionex Ultimate 3000 Nano LC system equipped with Atlantis dC18 NanoEase reverse-phase column (3 μm, 100 μm × 150 mm, Waters) and coupled to a hybrid quadrupole-orbitrap MS (Q-Exactive, Thermo Scientific). The peptide was eluted at 4–15 min retention time with a linear gradient of 2–35% acetonitrile (0.1% formic acid). All the solvents used for liquid chromatography MS were HPLC grade (Fisher). For each analysis, MS1 scan range of 300–1,100 m/z was used and data-dependent MS/MS was obtained to identify the site of demethylation. Each peptide peak and its area integration was performed on the XCalibur Qual Browser.
Kd (KDM4A-DTD Y973A) [µM],Kd [1] [µM],Kd [2] [µM],Kd (KDM4A-DTD N931D) [µM],Kd (KDM4A-DTD N931R) [µM],Kd (KDM4A-DTD N940A) [µM],Kd [3] [µM],Kd of DRR mutant [4],Kd (KDM4B-DTD Y993A) [µM],Molecule,demethylation by full-length KDM4B [5]
285,73.6 ± 3.9,2.2,0.85,73.9,57.4,10.3 ± 1.2,low micromolar Kd value,327,CC(C)C[C@H](NC(=O)[C@H](CCC(N)=O)NC(=O)[C@H](CCCCN)NC(=O)[C@H](CCCNC(=N)N)NC(=O)c1ccc2c(c1)C(=O)OC21c2ccc(O)cc2Oc2cc(O)ccc21)C(=O)N[C@@H](C)C(=O)N[C@H](C(=O)N[C@@H](CCCC[N+](C)(C)C)C(=O)N[C@@H](C)C(=O)N[C@@H](C)C(=O)N[C@@H](CCCNC(=N)N)C(=O)N[C@@H](CCCCN)C(=O)N[C@@H](CO)C(=O)N[C@@H](C)C(=O)N1CCC[C@H]1C(=O)N[C@@H](C)C(=O)N[C@H](C(=O)O)[C@@H](C)O)[C@@H](C)O [H3K23me3],–
–,–,–,–,–,–,–,–,–,"RKQLATK(Me3)AARK(Me3)SAPATGGW [H3K23me3K27me3, demethylation assay peptide, Peptide 2.0]",lack of measurable demethylation
–,–,–,–,–,–,–,–,–,"RKQLATKAARK(Me3)SAPATGGW [H3K27me3 peptide, demethylation assay peptide, Peptide 2.0]",did not detect significant demethylation
